Structures are written as SMILES.

In one experiment the test system is Isolated Rat Bladder Strips. The experiment is described as follows: Inhibition of contractions in isolated rat bladder strips (KCl-enhanced contractile activity; smooth muscle relaxation). As to conditions: 0.5 h; isolated rat bladder strips, 15 mM additional KCl, 30 minute challenge; read-out: IC50 (50% inhibition of pre-drug contractile activity). It is filed as cell-based, Sprague-Dawley rats. From the text: The smooth muscle relaxing activity of the compounds of this invention was established in accordance with standard pharmaceutically accepted test procedures with representative compounds as follows:
Sprague-Dawley rats (150-200 g) are rendered unconscious by CO2 asphyxiation and then euthanized by cervical dislocation. The bladder is removed into warm (37 deg.C) physiological salt solution (PSS) of the following composition (mM): NaCl, 118.4; KCl, 4.7; CaCl2, 2.5; MgSO4, 4.7; H2 O, 1,2; NaHCO3, 24.9; KH2 PO4, 1,2; glucose, 11.1; EDTA, 0.023; gassed with […]; pH 7.4. The bladder is opened and then dut into strips 1-2 mm in width and 7-10 mm in length. The strips are subsequently suspended in a 10 mL tissue bath under an initial resting tension of 1.5 g. The strips are held in place by two surgical clips one of which is attached to a fixed hook while the other is attached to an isometric force transducer. […] The carbachol is then washed out and the tissue allowed to relax to its resting level of activity. Following a further 30 min period of recovery an additional 15 mM KCl are introduced into the tissue bath. This increase in KCl concentration results in a large increase in the amplitude of spontaneous contractions (and initiation of contractions in previously quiescent strips) superimposed upon a small increase in basal tone. Following stabilization of this enhanced level of contractile activity, incremental increases in the concentration of test compound or vehicle are introduced into the tissue bath. Contractile activity is measured for each compound or vehicle concentration during the last minute of a 30 minute challenge.
The isometric force developed by the bladder strips is measured using a […] to elicit 50% inhibition of pre-drug contractile activity (IC50 concentration) and is calculated from this concentration-response curve.
As usually defined, the IC50 is the concentration that inhibits the measured activity by half. In the case of `CC(Nc1c(NCc2ccc(C#N)cc2Cl)c(=O)c1=O)C(C)(C)F` (centres unmarked) [Example 75, 3-Chloro-4-{[2-(2-fluoro-1,2-dimethyl-propylamino)-3,4-dioxo-cyclobut-1-enylamino]-methyl)-benzonitrile], the IC50 turned out to be 1590 ± 270 nM. Turning to `CCC(C)(C)Nc1c(N(Cc2ccc(C#N)cc2Cl)C(C)=O)c(=O)c1=O` [Example 77, N-(2-Chloro-4-cyano-benzyl)-N-[2-(1,1-dimethyl-propylamino)-3,4-dioxo-cyclobut-1-enyl)-acetamide], the IC50 was 2200 ± 950 nM. Take `CCCC(=O)N(Cc1ccc(C#N)cc1Cl)c1c(NC(C)(C)CC)c(=O)c1=O` [Example 78]: the IC50 stood at 2800 ± 1300 nM. For the compound `CCC(C)(C)Nc1c(NCc2ccc(C)cc2C)c(=O)c1=O` [Example 79, 3-(2.4-Dimethyl-benzylamino)-4-(1,1-dimethyl-propylamino)-cyclobut-3-ene-1,2-dione], the IC50 is 530 ± 230 nM. As for `CCC(C)(C)Nc1c(NCc2cccc(C)c2C)c(=O)c1=O` [Example 80, 3-(2,3-Dimethyl-benzylamino)-4-(1,1-dimethyl-propylamino)-cyclobut-3-ene-1,2-dione], the IC50 worked out at 5000 ± 3500 nM. On the same count and under the same terms, for `CCC(C)(C)Nc1c(NCc2c(C)cc(C)cc2C)c(=O)c1=O` [Example 81, 3-(1,1-Dimethyl-propylamino)-4-(2,4,6-trimethyl-benzylamino)-cyclobut-3-ene-1,2-dione] the value was 310 ± 80 nM; for `CC(C)(C)Nc1c(NCc2cc(Cl)ccc2Cl)c(=O)c1=O` [Example 82, 3-tert-Butylamino-4-(2,5-dichloro-benzylamino)-cyclobut-3-ene-1,2-dione], 680 ± 240 nM; for `CCC(C)(C)Nc1c(NCc2cc(Cl)ccc2Cl)c(=O)c1=O` [Example 83, 3-(2.5-Dichloro-benzylamino)-4-(1,1-dimethyl-propylamino)-cyclobut-3-ene-1,2-dione], 810 ± 320 nM. Take `Cc1ccc(CNc2c(NC(C)(C)C)c(=O)c2=O)cc1C` [Example 84, 3-tert-Butylamino-4-(3,4-dimethyl-benzylamino)-cyclobut-3-ene-1,2-dione]: the IC50 is 1600 ± 180 nM. Take `Cc1cc(C)cc(CNc2c(NC(C)(C)C)c(=O)c2=O)c1` [Example 86, 3-tert-Butylamino-4-(3,5-dimethyl-benzylamino)-cyclobut-3-ene-1,2-dione]: the IC50 is 5100 ± 960 nM. With `CCC(C)(C)Nc1c(NCc2cc(Cl)cc(Cl)c2)c(=O)c1=O` [Example 88, 3-(3,5-Dichloro-benzylamino)-4-(1,1-dimethyl-propylamino)-cyclobut-3-ene-1,2-dione], the IC50 was determined as 7300 ± 6000 nM.

For the compound `CC(C)(C)Nc1c(NCc2cc(Cl)cc(Cl)c2)c(=O)c1=O` [Example 89, 3-tert-Butylamino-4-(3.5-dichloro-benzylamino)-cyclobut-3-ene-1,2-dione], the IC50 turned out to be 2300 ± 850 nM. For the compound `CC(C)(CO)Nc1c(NCc2ccc(C#N)cc2Cl)c(=O)c1=O` [Example 93, 3-Chloro-4-{[2-(2-hydroxy-1,1-dimethyl-ethylamino)-3,4-dioxo-cyclobut-1-enylamino]-methyl}-benzonitrile], the IC50 worked out at 8100 ± 2000 nM. For `CCC(C)(C)Nc1c(NCc2cc(C)ccc2C)c(=O)c1=O` [Example 94, 3-(2,5-Dimethyl-benzylamino)-4-(1,1-dimethyl-propylamino)-cyclobut-3-ene-1,2-dione], the IC50 was found to be 1910 ± 840 nM. Still for that read-out and setting: for `Cc1ccc(C)c(CNc2c(NC(C)(C)C)c(=O)c2=O)c1` [Example 95, 3-(t-Butylamino)-4-(2.5-dimethyl-benzylamino)-cyclobut-3-ene-1,2-dione] the value was 1500 ± 300 nM; for `Cc1c(Cl)cccc1CNc1c(NC(C)(C)C)c(=O)c1=O` [Example 96, 3-tert-Butylamino-4-(3-chloro-2-methyl-benzylamino)-cyclobut-3-ene-1,2-dione], 1300 ± 300 nM; for `CCC(C)(C)Nc1c(NCc2cccc(Cl)c2C)c(=O)c1=O` [Example 97, 3-(3-Chloro-2-methyl-benzylamino)-4-(1,1-dimethyl-propylamino)-cyclobut-3-ene-1,2-dione], 280 ± 25 nM.

As for `CC(=O)N(Cc1ccc(C#N)cc1Cl)c1c(NC(C)(C)C)c(=O)c1=O` [Example 98, N-(2-tert-Butylamino-3,4-dioxo-cyclobut-1-enyl)-N-(2-chloro-4-cyano-benzyl)-acetamide], the IC50 is 20300 ± 790 nM. Still for that read-out and setting: next, `CCC(C)(C)Nc1c(NCc2cccc(Cl)c2Cl)c(=O)c1=O` [Example 99, 3-(2,3-Dichloro-benzylamino)-4-(1,1-dimethyl-propylamino)-cyclobut-3-ene-1,2-dione]: 790 ± 470 nM; `CC(C)(C)Nc1c(NCc2cccc(Cl)c2Cl)c(=O)c1=O` [Example 100, 3-(t-Butylamino)-4-(2,3-dichloro-benzylamino)-cyclobut-3-ene-1,2-dione]: 1240 ± 170 nM. Take `CCCC(=O)N(Cc1ccc(C#N)cc1Cl)c1c(NC(C)(C)C)c(=O)c1=O` [Example 101]: the IC50 was 2360 ± 1600 nM.

The experiment is the same for the next values; noted with them: Rattus norvegicus, 0.5 h; read-out: Percent contraction at 30 μM (C).
As to `CCCC(=O)N(Cc1ccc(C#N)cc1Cl)c1c(NC(C)(C)CC)c(=O)c1=O` [Example 78], the percent contraction at 30 µM was determined as 28.5 ± 8.7%.

Still in this experiment, the particulars now being: Rattus norvegicus; read-out: Percent inhibition at 30 μM (I).
As a reminder, the inhibition is the percentage by which the read-out fell short of the control. Regarding `CCC(C)(C)Nc1c(N(Cc2ccc(C#N)cc2Cl)C(C)=O)c(=O)c1=O` [Example 77, N-(2-Chloro-4-cyano-benzyl)-N-[2-(1,1-dimethyl-propylamino)-3,4-dioxo-cyclobut-1-enyl)-acetamide], the inhibition at 30 µM is 25%. On to `CCCC(=O)N(Cc1ccc(C#N)cc1Cl)c1c(NC(C)(C)CC)c(=O)c1=O` [Example 78], for which the inhibition at 30 µM is 18 ± 6.5%. Regarding `CCC(C)(C)Nc1c(NCc2ccc(C)c(C)c2)c(=O)c1=O` [Example 85, 3-(3A-Dimethyl-benzylamino)-4-(1,1-dimethyl-propylamino)-cyclobut-3-ene-1,2-dione], the inhibition at 30 µM turned out to be 35.1 ± 4.4%. Same read-out and setting: for `CCC(C)(C)Nc1c(NCc2cc(C)cc(C)c2)c(=O)c1=O` [Example 87, 3-(3.5-Dimethyl-benzylamino)-4-(1,1-dimethyl-propylamino)-cyclobut-3-ene-1,2-dione] the value was 13.6 ± 8.4%; for `Cc1ccc(CNc2c(NC(C)(C)C)c(=O)c2=O)cc1Cl` [Example 90, 3-tert-Butylamino-4-(3-chloro-4-methyl-benzylamino)-cyclobut-3-ene-1,2-dione], 16.6 ± 3.6%.

With `CCC(C)(C)Nc1c(NCc2ccc(C)c(Cl)c2)c(=O)c1=O` [Example 91, 3-(3-Chloro-4-methyl-benzylamino)-4-(1,1-dimethyl-propylamino)-cyclobut-3-ene-1,2-dione], the inhibition at 30 µM came to 30.7 ± 6.7%. Regarding `CC(C)(CO)Nc1c(NCc2ccc(C#N)cc2Cl)c(=O)c1=O` [Example 93, 3-Chloro-4-{[2-(2-hydroxy-1,1-dimethyl-ethylamino)-3,4-dioxo-cyclobut-1-enylamino]-methyl}-benzonitrile], the inhibition at 30 µM was 44%.

The record behind these values is patent US5780505A, “Substituted N-arylmethylamino derivatives of cyclobutene-3, 4-diones” (American Home Products Corporation, priority 1997, dated 1998).
